Data: ChEMBL document CHEMBL1158156, “Structure-based design, synthesis, and biological evaluation of 1,1-dioxoisothiazole and benzo[b]thiophene-1,1-dioxide derivatives as novel inhibitors of hepatitis C virus NS5B polymerase” (Bioorg Med Chem Lett, 2008)

How the values were obtained:
[1] = Cytotoxicity against human Huh7/C24 cells after 72 hrs; type: cell-based, Huh-7
[2] = tested on: Hepatitis C virus; experiment: Inhibition of HCV 1b NS5B polymerase; parameters: species or system Hepatitis C virus subtype 1b
[3] = tested on: Hepatitis C virus; experiment: Antiviral activity against HCV 1b infected in human Huh7/C24 cells after 72 hrs by replicon assay; type: functional, organism-based, Hepacivirus hominis; conditions: genotype 1b, Huh-7, 72 h
[4] = Metabolic stability in human liver microsomes assessed as half life
[5] = Plasma concentration in cynomolgus monkey at 1 mg/kg, po administered as single dose after 12 hrs; type: ADME, organism-based, Macaca fascicularis; parameters: dose 1 mg/kg, route oral
[6] = Apparent permeability from apical to basolateral side in human Caco-2 cells; type: ADME, cell-based
[7] = AUC at 24 hrs in cynomolgus monkey at 1 mg/kg, po administered as single dose; type: ADME, organism-based, Macaca fascicularis; parameters: time < 24 hr, dose 1 mg/kg, route oral; conditions: plasma
[8] = Apparent permeability from basolateral to apical side in human Caco-2 cells; type: ADME, cell-based
[9] = Oral bioavailability in cynomolgus monkey at 1 mg/kg administered as single dose; type: ADME, organism-based, Macaca fascicularis; conditions: in vivo
[10] = Ratio of permeability from basolateral to apical over apical to basolateral side in human Caco-2 cells
[11] = Apparent permeability across human Caco-2 cells

Structure (SMILES)	CC50 at 72 h [1] [µM]	IC50 [2] [µM]	EC50 [3] [µM]	half-life ([4]; liver microsomes) [h]	other results
CN(Cc1cccc2c1S(=O)(=O)C=C2C1=C(O)[C@H](C(C)(C)C)N(CCC(C)(C)C)C1=O)S(C)(=O)=O	> 33	0.92	5.8	> 1	
CC(C)(C)[C@H]1C(O)=C(C2=NS(=O)(=O)c3c(OCC(N)=O)cccc32)C(=O)N1Cc1ccc(F)c(Cl)c1	> 33	0.033	7.9	> 1	
CN(Cc1cccc2c1S(=O)(=O)N=C2C1=C(O)C(C)(C)N(Cc2ccc(F)c(Cl)c2)C1=O)S(C)(=O)=O	> 33	0.46		> 1	
CN(Cc1cccc2c1S(=O)(=O)N=C2C1=C(O)C2(CC2)N(Cc2ccc(F)c(Cl)c2)C1=O)S(C)(=O)=O	> 33	0.62		> 1	
CC(C)(C)[C@H]1C(O)=C(C2=NS(=O)(=O)c3c(OCC#N)cccc32)C(=O)N1Cc1ccc(F)c(Cl)c1	> 33	0.07	0.7	> 1	
CC(C)[C@H]1C(O)=C(C2=NS(=O)(=O)c3c(OCC(=O)C(C)(C)C)cccc32)C(=O)N1Cc1ccccc1	> 33	21	> 33		
CC(C)[C@H]1C(O)=C(C2=NS(=O)(=O)c3c(OCCC(N)=O)cccc32)C(=O)N1Cc1ccccc1	> 33	1.2	100		
CCOc1cccc2c1S(=O)(=O)N=C2C1=C(O)[C@H](C(C)(C)C)N(CCC(C)(C)C)C1=O	> 33	1.5		> 1	
CC(C)[C@H]1C(O)=C(C2=NS(=O)(=O)c3c(OCc4ncon4)cccc32)C(=O)N1Cc1ccccc1	> 33	0.35	15	> 1	
CC(C)(C)[C@H]1C(O)=C(C2=NS(=O)(=O)c3cc(NS(C)(=O)=O)ccc32)C(=O)N1Cc1ccc(F)c(Cl)c1	> 33	0.094	13	> 1	
CCOc1cccc2c1S(=O)(=O)N=C2C1=C(O)[C@H](C(C)(C)C)N(CCC(C)C)C1=O	> 33	5.1			
CC(C)[C@H]1C(O)=C(C2=NS(=O)(=O)c3ccccc32)C(=O)N1Cc1ccccc1	> 33		24	> 1	
CC(C)[C@H]1C(O)=C(C2=NS(=O)(=O)c3c(OCC#N)cccc32)C(=O)N1Cc1ccccc1	> 33	1.6	12	> 1	
CC(C)(C)[C@H]1C(O)=C(C2=NS(=O)(=O)c3c(OCc4ncon4)cccc32)C(=O)N1Cc1ccc(F)c(Cl)c1	> 33	0.18	1.8	> 1	
CCOc1cccc2c1S(=O)(=O)N=C2C1=C(O)[C@H](CC(C)C)N(CCC(C)(C)C)C1=O	> 33	5.1			
CC(C)[C@H]1C(O)=C(C2=NS(=O)(=O)c3c(OCC(=O)N4CCOCC4)cccc32)C(=O)N1Cc1ccccc1	> 33	3.2	> 33	> 1	
CC(C)(C)CCN1C(=O)C(C2=NS(=O)(=O)c3c(OCc4ncon4)cccc32)=C(O)[C@@H]1C(C)(C)C	> 33	0.65	2	0.733	
CC(C)(C)[C@H]1C(O)=C(C2=NS(=O)(=O)c3c(CNS(C)(=O)=O)cccc32)C(=O)N1Cc1ccc(F)c(Cl)c1	> 33	< 0.01	0.07	> 1	concentration at 12 h [5]: 0.5 ng/mL; Papp A→B [6]: 0.1 ×10⁻⁶ cm/s; AUC at 24 h [7]: 38 ng·h/mL; Papp B→A [8]: 15 ×10⁻⁶ cm/s; bioavailability [9]: 1%; efflux ratio [10]: 150

Structure (SMILES)	CC50 at 72 h [1] [µM]	IC50 [2] [µM]	EC50 [3] [µM]	half-life ([4]; liver microsomes) [h]	other results
CCOc1cccc2c1S(=O)(=O)N=C2C1=C(O)[C@H](C(C)(C)C)N(Cc2ccc(F)c(Cl)c2)C1=O	> 33	0.76			half-life ([4]; microsomes): > 1 h
CC(C)NCC(O)COc1cccc2ccccc12 (configuration not stated) [PROPRANOLOL]					Papp [11]: 10 ×10⁻⁶ cm/s
CC(C)[C@@]1(C)C(O)=C(C2=CS(=O)(=O)c3c(CN(C)S(C)(=O)=O)cccc32)C(=O)N1CCC(C)(C)C	> 33	13		> 1	
CCOc1cccc2c1S(=O)(=O)N=C2C1=C(O)[C@H](C(C)C)N(Cc2ccccc2)C1=O	> 33	3.6	18	> 1	
CC(C)(C)CCN1C(=O)C(C2=NS(=O)(=O)c3c(CCS(C)(=O)=O)cccc32)=C(O)[C@@H]1C(C)(C)C	> 33	0.045	2.6	> 1	
CN(Cc1cccc2c1S(=O)(=O)N=C2C1=C(O)[C@H](C(C)(C)C)N(Cc2ccc(F)c(Cl)c2)C1=O)S(C)(=O)=O	> 33	0.023	0.09	> 1	concentration at 12 h [5]: 3.1 ng/mL; Papp A→B [6]: 0.2 ×10⁻⁶ cm/s; AUC at 24 h [7]: 193 ng·h/mL; Papp B→A [8]: 29 ×10⁻⁶ cm/s; bioavailability [9]: 4%; efflux ratio [10]: 132
CC(C)(C)CCN1C(=O)C(C2=CS(=O)(=O)c3c(CNS(C)(=O)=O)cccc32)=C(O)[C@@H]1C(C)(C)C	> 33	0.24	6.4	> 1	
CCOc1cccc2c1S(=O)(=O)N=C2C1=C(O)[C@H](C(C)(C)C)N(Cc2cccc(Cl)c2)C1=O	> 33	1.6			
CCOc1cccc2c1S(=O)(=O)N=C2C1=C(O)C(c2cccs2)N(CCC(C)(C)C)C1=O (racemic)	> 33	2.9			
CC[C@@]1(C)C(O)=C(C2=NS(=O)(=O)c3c(CN(C)S(C)(=O)=O)cccc32)C(=O)N1Cc1ccc(F)c(Cl)c1	> 33	0.41			half-life ([4]; microsomes): > 1 h
CC(C)[C@H]1C(O)=C(C2=NS(=O)(=O)c3c(OCC(N)=O)cccc32)C(=O)N1Cc1ccccc1	> 33	0.52	88	> 1	
CCOc1cccc2c1S(=O)(=O)N=C2C1=C(O)[C@H](C(C)C)N(CCC(C)(C)C)C1=O	> 33	9			
CCOc1cccc2c1S(=O)(=O)N=C2C1=C(O)[C@H](C2CCCCC2)N(CCC(C)(C)C)C1=O	> 33	4			
CC(C)(C)CCN1C(=O)C(C2=NS(=O)(=O)c3ccccc32)=C(O)[C@@H]1C(C)(C)C	> 33	0.42	4.3	0.167	concentration at 12 h [5]: 5 ng/mL; Papp A→B [6]: 9.9 ×10⁻⁶ cm/s; AUC at 24 h [7]: 4680 ng·h/mL; Papp B→A [8]: 19 ×10⁻⁶ cm/s; efflux ratio [10]: 2
CS(=O)(=O)NCc1cccc2c1S(=O)(=O)N=C2C1=C(O)C2(CC2)N(Cc2ccc(F)c(Cl)c2)C1=O	> 33	0.13	> 33		half-life ([4]; microsomes): > 1 h
CC(C)(C)CCN1C(=O)C(C2=NS(=O)(=O)c3c(CNS(C)(=O)=O)cccc32)=C(O)[C@@H]1C(C)(C)C	> 33	0.018	0.35		half-life ([4]; microsomes): > 1 h
CC(C)(C)CCN1C(=O)C(C2=NS(=O)(=O)c3c(OCC(N)=O)cccc32)=C(O)[C@@H]1C(C)(C)C	> 33	0.2	11	0.8	
CC(C)[C@H]1C(O)=C(C2=NS(=O)(=O)c3c(O)cccc32)C(=O)N1Cc1ccccc1	> 33	0.47	47	> 1	
